Reference: patent publication US20230313199A1, “TARGET FOR MODULATING BODY MASS” (Massachusetts Institute of Technology, priority 2020, published 2023)

Assays:
THP-1 cells = test: Thermogenesis by fluorescent polymeric thermometer (FPT), flow cytometry; assay type: cell-based, human; settings: heme treatment for one hour
Protocol: (§1) In the second approach, we used fluorescent polymeric thermometer (FPT), which we synthesized in-house (see above). Parental and knockout THP-1 cells were mixed together, washed and incubated with FPT in 5% w/v glucose solution for 6 hrs. The cells were washed with PBS twice and reseeded in dishes with glass bottom that was coated with poly-lysine. The cells were imaged under Confocal Laser-Scanning Microscopy at 37° C. Alternatively, THP-1, MCF7, 293T, 7CKO, SERCA2b^−/− cells were incubated with FPT and control polymer overnight and followed with vehicle or hematin treatment for 1 hour. Then the fluorescence intensities were determined by a flow cytometer.

[1] = biological target: T1, endogenous MFSD7C and ATP5h (Mus musculus, UniProt Q91X85); test: Co-IP of endogenous MFSD7C and ATP5h in bone marrow-derived macrophages; assay type: cell-based; settings: heme treatment
T1 construct: Co-IP and immunoblotting analysis of endogenous MFSD7C with ATP5h, SERCA2b and HMOX1 in bone marrow-derived macrophages; endogenous in cells; host or cells: bone marrow-derived macrophages from Mfsd7c fl/fl C57BL/6 mice
Protocol: NTD was incubated with heme and run on Superdex 75 gel filtration column. The flow through was measured for absorbance at 230 nm (gray), 380 nm (blue), and 415 nm (green). Absorbance intensity was normalized to maximum value. […] Heme (100 μM) absorption was set to zero. […] Wildtype (WT) and mutant (Mut) peptide sequences are shown. […] Shown are representative data from five separate experiments. […] Shown are immunoblots of MFSD7C, ATP5h, SERCA2b, and HMOX1 on whole lysates or immunoblots of MFSD7C on anti-ATP5h, anti-SERCA2b and anti-HMOX1 immunoprecipitates. Representative data from one from three experiments are shown. […] Shown are representative data from three separate experiments. WCE: whole cell extract, Sup: supernatant, Mito: 10,000 g mitochondrial fraction. […] THP-1 cells were stained with MitoTracker (green), fixed and permeabilized, and then stained with rabbit polyclonal antibody specific for the C-terminus of MFSD7C, followed with Alexa Fluor® 594-labelled goat anti-rabbit antibody (red). Nuclei were labeled using DAPI (blue). […]
Differentiation of bone marrow-derived macrophage (BMDM). […] Cells were resuspended in DMEM media containing 10% FBS, 2 mM L-glutamine, 2 mM pyruvate, non-essential amino acids (100 μM each), 0.55 mM 2-mercaptoethanol, penicillin/streptomycin), passed through a 40 μm Falcon cell strainer (VWR) to remove large aggregates, and counted. […]

[2] = tested on: interactions between MFSD7C^ΔN and CYC1, NDUFA4, COX4i1, ATP5h and ATP5c1; test: Co-IP of HA-tagged MFSD7C^ΔN with ETC components; assay type: cell-based, murine; settings: heme treatment before lysis
Protocol: FIGS. 4A-4H show NTD of MFSD7C mediates heme effect on mitochondrial respiration. FIGS. 4A-4C show comparison of basal OCR (FIG. 4A), maximal OCR (FIG. 4B) and ECAR (FIG. 4C) of THP-1, 4B8, and 4B8^FL and 4B8^ΔN cells treated with vehicle or heme for 1 hour (n=18 separate experiments). […] Cells were incubated with FPT for 6 hrs, washed and reseeded in poly-lysine coated glass bottom dishes. After cells attached to the glass, medium containing 40 μM heme was added. Cells in the same field were imaged immediately and again 1 hour later. Relative FPT fluorescent intensities, normalized to THP-1, from three experiments are shown. (n=3 independent experiments). […] THP-1 cells were co-cultured with 4B8, 4B8^FL, or 4B8^ΔN in FPT solution for 6 hrs, washed and reseeded in poly-lysine coated glass bottom dishes. Cells were imaged by confocal laser-scanning microscopy. […] Representative images from three experiments are shown. Scale bar: 10 μm. […] THP-1, 4B8, 4B8^FL and 4B8^ΔN cells were treated with vehicle or heme for 1 hour and MMP was measured by using JC-10 Mitochondrial Membrane Potential Assay Kit followed by flow cytometry. […] Shown are representative Western blotting data (FIG. 4G) and quantification of band intensities from n=3 independent experiments (FIG. 4H). P-values were calculated using two-way ANOVA (*p<0.05, **p<0.01, ***p<0.005). […]

293T cells = test: Thermogenesis by FPT, parental 293T cells; assay type: cell-based, human; settings: heme for 1 hour
Protocol: Shown are representative graphs of OCR output of the indicated cells with or without hematin treatment and their responses to oligomycin, FCCP, and rotenone plus antimycin A (FIG. 12B), basal OCR (FIG. 12C), maximal OCR (FIG. 12D), and ECAR (FIG. 12E) from two separate experiments with n=10 biologically independent samples. Data are presented as mean value±standard deviation. Each dot represents one technical replicate. […] Parental and knockout cells were incubated with no probe or FPT for 6 hours, and then washed twice. A portion of FPT-treated cells was treated with heme for 1 hour. FPT fluorescence intensity was quantified by flow cytometry. Shown are representative plots from two separate experiments. P-values were calculated using two-way ANOVA (***p<0.001).
as §1, with “Alternatively, THP-1, MCF7, 293T, 7CKO, SERCA2b^−/− cells were incubated with FPT and control polymer overnight and followed with vehicle or hematin treatment for 1 hour.” left out

T1 sequence (Q91X85 whole entry): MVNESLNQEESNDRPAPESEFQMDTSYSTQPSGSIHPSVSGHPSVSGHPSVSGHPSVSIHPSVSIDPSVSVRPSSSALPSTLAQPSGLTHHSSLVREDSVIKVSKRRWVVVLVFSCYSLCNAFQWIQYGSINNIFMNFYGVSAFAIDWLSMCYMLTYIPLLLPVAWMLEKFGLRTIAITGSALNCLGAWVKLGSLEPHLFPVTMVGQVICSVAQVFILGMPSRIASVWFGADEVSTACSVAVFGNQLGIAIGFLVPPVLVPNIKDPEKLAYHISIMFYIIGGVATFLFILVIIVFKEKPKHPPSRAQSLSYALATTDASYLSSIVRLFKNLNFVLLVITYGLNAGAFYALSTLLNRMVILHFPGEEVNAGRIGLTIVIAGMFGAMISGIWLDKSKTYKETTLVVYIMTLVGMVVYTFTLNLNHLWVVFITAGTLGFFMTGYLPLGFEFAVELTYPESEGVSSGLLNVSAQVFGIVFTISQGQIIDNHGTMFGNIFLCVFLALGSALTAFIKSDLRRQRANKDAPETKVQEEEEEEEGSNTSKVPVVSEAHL

SMILES: C=CC1=C(C)c2cc3[n-]c(cc4[n-]c(cc5nc(cc1n2)C(C)=C5C=C)c(C)c4CCC(=O)O)c(CCC(=O)O)c3C.[Fe+2] [heme]
- FPT fluorescence by flow cytometry (THP-1 cells): almost all cells had dramatically increased fluorescence
- interactions between endogenous MFSD7C and ATP5h (co-IP) [1]: disrupted
- disruption of interactions between MFSD7C^ΔN and ETC components (co-IP) [2]: failed to disrupt
- FTP intensity (293T cells): significantly stimulated
